In patent EP2497775A1, “Ferrocene-based compounds and their use as ROS regulating prodrugs” (Ruprecht-Karls-Universität Heidelberg, priority 2011, dated 2012):
Read-outs that look alike come from different tables or passages of the source.

Assays:
HL-60 cells = test: Generation of ROS in cells (DCFH-DA, flow cytometry); assay type: cell-based, Human; conditions: 50 µM, 4 h
Method: Generation of ROS in HL-60 cells in the presence the prodrugs, comparative example C.-E. and controls (Table 3)
The probe of HL-60 cells was taken from the cultivation medium (RPMI 1640 supplemented with 10 % FCS, 1 % L-glutamine and 1% penicillin). The medium was replaced for PBS-buffer to obtain the cell suspension with 10^6 cells per mL. DCFH-DA solution (1 µL, 10 mM in DMSO) was added to the suspension (1 mL) and incubated in the dark chamber filled with CO2 (5 %) at 37 °C for 5 min. Then, the cells were washed with PBS and RPMI 1640 (5 % FCS, 1 % L-glutamine, 1% penicillin) medium and an iron complex (10 µL of stock solutions, solvent: DMF containing 2 % water and 1 % sodium ascorbate, final concentration of the complex - 50 µM) was added. After 4 h of the incubation the fluorescence of live cells (λex = 488 nm, λem = 530 nm) in the suspensions was determined by using the flow cytometer. Efficacy of ROS generation was determined using the following formulae: efficacy = (F(prodrug) - F0) / (F(FeSO4) - F0), where F(prodrug) is mean fluorescence intensity of cells incubated with a prodrug and treated as described above, F(FeSO4) is mean fluorescence intensity of cells incubated with FeSO4; F0 is mean fluorescence intensity of cells, which were not treated with any iron complex.

HL60-cells = test: Cell permeability of the prodrugs (boron/curcumin assay); assay type: cell-based, Human; conditions: 100 µM, 1 h, boron relative to comparative example C.-E.
Method: Assay for determination of cell Permeability of the prodrugs (Table 2) (according to the protocol described in J.Plant Nutr. Soil Sci. 1999,162,15-18) HL60-cells grown in RPMI 1640 medium supplemented with 10 % FCS, 1 % glutamine and 1% penicillin / streptomycin were centrifuged and the medium was replaced with RPMI 1640 medium (5 % FCS, 1 % L-glutamine, 1% penicillin) to obtain suspensions containing 10^6 cells per mL. Solutions of prodrugs (5 µL, solvent: DMF containing 2 % water and 1 % sodium ascorbate) were added to the suspensions (500 µL) and incubated for 1 h. The final concentration of the prodrugs in the suspensions was 100 µM. Then the cells were washed 3 times with PBS buffer (3 x 500 µL), treated with concentrated H2O2 solution (200 µL, 1 M) for 30 min and all volatiles were removed by lyophilization. Dry, lysed cells were washed with water (200 µL) and aqueous solution obtained was acidified with HCl (400 µL, 0.1 M). Then this solution was extracted with ethyl-1,3-hexandiol (100 µL, 10 % in CHCl3, v/v) and a portion of the organic phase obtained (40 µL) was mixed with H2SO4 / CH3CO2H (400 µL, 1/1, v/v). Curcumin solution in methylisobutylketone (500 µL, 2 mg in 1 mL of the solvent) was added and allowed to react for 24 h. The reaction was quenched by addition of water (1 mL). […] The value A(550 nm)-A(780 nm) was proportional to concentration of boron in the mixture. Amount of boron released from comparative example C.-E. was taken as a reference. All other values were determined relative to this reference. These values are compared in Table 2 with TLC retention factors, which are proportional to hydrophobicity of the prodrugs.

[1] = TLC retention factor as measure of hydrophobicity; assay type: physicochemical; conditions: support - SiO2, eluent - hexane / ethyl acetate (3/1, v/v); proportional to hydrophobicity
[2] = tested on: Human promyelocytic leukemia cells (HL-60); test: Viability of HL-60 cells (propidium iodide, flow cytometry); assay type: cell-based; conditions: read-out: Toxicity of the complexes: IC50
Method: Determination of viability of HL-60 cells (Table 4)
HL-60 cells grown in RPMI 1640 medium supplemented with 10 % FCS, 1 % L-glutamine and 1% penicillin were centrifuged, the medium was replaced with RPMI 1640 medium (5 % FCS, 1 % L-glutamine, 1% penicillin) to obtain suspensions containing 10^6 cells per mL. Stock solutions of prodrugs of different concentrations (5 µL, solvent: DMF containing 2 % water and 1 % sodium ascorbate) were added to the cellular suspensions (500 µL) and incubated for specific periods of time. Four experiments were conducted for each concentration of the prodrug. At the end of the incubation period propidium iodide (PI, 1 µL, 1.5 mM in water) was added to label leaky cells and in 5 min the suspension of the cells was analyzed by using flow cytometry.

[3] = Generation of ROS in vitro (DCFH fluorescence, cell-free); assay type: biochemical; conditions: iron complex 100 µM, H2O2 (10 mM), glutathione (5 mM), pH 7.5, relative to FeSO4
Method: Monitoring generation of ROS in the presence of the prodrugs A-E, Comparative Example and control compounds (Table 1):
2',7'-Dichlorfluorescin diacetate (DCFH-DA, 4.9 mg) was dissolved in DMF (100 µL) and mixed with aqueous NaOH (0.1 M, 900 µL). The resulting mixture was incubated for 30 min at 22°C in the dark to obtain the stock solution of 2',7'-dichlorfluorescin (DCFH, 10 mM). Next, the solution (1 mL) containing DCFH (10 µM), MOPS buffer (100 mM, pH 7.5), EDTA (10 mM), glutathione (5 mM) and H2O2 (10 mM) was prepared. Monitoring of fluorescence (λex= 501 nm, λem= 531 nm) of this solution was started. After 3 min, an iron complex (100 µM: ferrocene prodrugs A-E, Comparative Example, negative or positive controls 1 a, P) was added and the fluorescence monitoring was continued. Efficacy of ROS generation was then determined 17 and 37 min after the addition of the iron complex by using the following formulae: efficacy = (F(prodrug) - F0) / (F(FeSO4) - F0), where F(prodrug) is fluorescence of a mixture containing prodrug and treated as described above, F(FeSO4) is fluorescence of a mixture containing FeSO4; F0 is fluorescence of a mixture containing no iron complex.

[4] = Release of iron ions from the prodrugs in the presence of hydrogen peroxide (2,2'-bipyridine absorbance); assay type: physicochemical; conditions: H2O2 (1 mM), 22°C, 100 min, MOPS buffer pH 7.5; relative to FeSO4 (100 µM)
Method: Monitoring release of iron ions from the prodrugs A-E, Comparative Example and control compounds in the presence of hydrogen peroxide (Table 1):
Solution of a ferrocene complex (10 µL, 10 mM in DMF containing 2% water and 1% sodium ascorbate) was diluted with MOPS buffer (990 µL, 100 mM, pH 7.5). Such probes were incubated with H2O2 (1 mM) at 22°C for 100 min. Then the reaction was quenched by adding sodium dithionite (20 µL, 1 M in water) that converts Fe^3+ into Fe^2+. Finally, 2,2'-bipyridine solution (3 µL, 100 mM in DMF) was added to form dark red [Fe(2,2'-bipyridine)3]^2+ complex (λmax= 519 nm). FeSO4 sulfate (100 µM) was used as a positive control to determine the absorbance intensity when the ferrocene complexes were completely converted by H2O2 to free Fe^2+. […] The data are provided in Table 2 and were determined by using the following formulae: iron release efficacy = (A519nm(prodrug) - A519nm(buffer)) / (A519nm(FeSO4) - A519nm(buffer)), where A519nm(prodrug) is absorbance at 519 nm of a prodrug treated with H2O2 and 2,2'-bipyridine as described above, A519nm(FeSO4) is absorbance at 519 nm of FeSO4 treated in a similar way as a prodrug and A519nm(buffer) is absorbance at 519 nm of the buffer only treated in a similar way as a prodrug.

[5] = Formation of ferrocenium ions in the presence of H2O2 (absorbance at 300 nm); assay type: physicochemical; conditions: 100 µM complex in dimethylformamide, 9.8 mM H2O2 (Figure 1)
Method: Figure 1: Iron complexes (100 µM) were dissolved in dimethylformamide and concentrated H2O2 solution (30 % in water, 1 µL) was added: final H2O2 concentration was 9.8 mM. Light absorbance at 300 nm was monitored as a function of time.
Monitoring formation of ferrocenium ions from the prodrugs A and B, as well as comparative example C.-E
Formation of ferrocenium ions from ferrocenes correlates with the increased light absorption in the region between 250 and 350 nm. In this spectral region […] have intense charge transfer transitions, whereas ferrocenes have only weak transitions (Y.S. Sohn, D.N. Hendrickson, H.B. Grey, J. Am. Chem. Soc., 1971, 93(15), 3603 - 3612).

Fibroplasts = test: Viability of fibroplasts (MTT); assay type: cell-based; conditions: Fibroplasts (normal cells); read-out: Toxicity of the complexes: IC50
Method: Determination of viability of fibroplasts (Table 4)
Cells were grown either in DMEM medium (Dulbecco's Modified Eagle's Medium) supplemented with 10 % FCS, 1 % L-glutamine and 1% streptomycin/ penicillin up to 80-90 % confluence. Then the cells were trypsinated, washed, re-suspended in the same medium and spread in wells of a 96-wells microtiter plate (-25.000 cells per well, per 100 µL) and left standing at 37 °C in the chamber filled with CO2 (5 %) for 5 h. Stock solutions of prodrugs of different concentrations (1 µL, solvent: DMF / water (1/3, v/v) containing 1 % sodium ascorbate) were added to the wells and incubated for specific periods of time. Four experiments were conducted for each concentration of the prodrug.

8226 (myeloma) = conditions: cited from earlier work
C8161 (melanoma) = conditions: cited from earlier work
8226-Dox 40 (myeloma) = conditions: cited from earlier work
MCF-7 (breast) = conditions: cited from earlier work
HEY (ovary) = conditions: cited from earlier work
CIN8/27B (myeloma) = conditions: cited from earlier work
A375 (melanoma) = conditions: cited from earlier work
C480 (colon) = conditions: cited from earlier work
MIRW5 (melanoma) = conditions: cited from earlier work
BE (ovary) = conditions: cited from earlier work
[6] = tested on: MES-SA human uterine cancer; conditions: ref. [6]; cited from earlier work
[7] = 72 h incubation (value in brackets)

In the case of “4-((N-(4-ethylbenzyl)-N-Ferrocenylaminocarbonyl)oxymethyl)-2-phenylboronic acid pinacol ester [Prodrug D]”, the “Efficacy of ROS release in cells” value (HL-60 cells) is reported as 0.03 ± 0.02, the “Relative efficiency of cell loading” value (HL60-cells) is reported as 2.3 and the “TLC-retention factor (Rf)” value [1] is reported as 0.51. The IC50 ([2]; listed as prodrug D) was 12 to 26 µM, the IC50 [2] was 14 µM and the “Efficacy of ROS generation in vitro” value ([3]; 17 min incubation) was 0.09. The “Efficacy of ROS generation in vitro” value ([3]; 37 min incubation) was 0.24 and the “Efficacy of iron release in vitro” value [4] was 0.
With “4-((N-(4-methylbenzyl)-N-Ferrocenylaminocarbonyl)oxymethyl)-2-phenylboronic acid pinacol ester [Prodrug C]” the “Relative efficiency of cell loading” value (HL60-cells) was 1.5, the “TLC-retention factor (Rf)” value [1] was 0.50 and the IC50 ([2]; listed as prodrug C) was 12 to 26 µM. The IC50 [2] was 12 ± 1 µM, the “Efficacy of ROS generation in vitro” value ([3]; 17 min incubation) was 0.10 and the “Efficacy of ROS generation in vitro” value ([3]; 37 min incubation) was 0.42. The “Efficacy of iron release in vitro” value [4] was 0.
With “4-((N-Ethyl-N-Ferrocenylaminocarbonyl)oxymethyl)-2-phenylboronic acid pinacol ester [Prodrug A]” the “Efficacy of ROS release in cells” value (HL-60 cells) was 0.06 ± 0.03, the “TLC-retention factor (Rf)” value [1] was 0.47 and the IC50 ([2]; listed as prodrug A) was 12 to 26 µM. The IC50 [2] was 26 ± 3 µM, the “Efficacy of ROS generation in vitro” value ([3]; 17 min incubation) was 0.50 and the “Efficacy of iron release in vitro” value [4] was 0.72.
For “4-((N-Ferrocenylaminocarbonyl)oxymethyl)-2-methylphenylboronic acid pinacol ester [Prodrug E]”, the “Efficacy of ROS release in cells” value (HL-60 cells) was 0.04 ± 0.02, the “formation of ferrocenium ions” value [5] was “rather decomposed with formation of iron ions” and the “TLC-retention factor (Rf)” value [1] was 0.45. The IC50 [2] was 39 ± 4 µM, the “Efficacy of ROS generation in vitro” value ([3]; 17 min incubation) was 0.52 and the “Efficacy of iron release in vitro” value [4] was 0.74.
For “4-((N-benzyl-N-Ferrocenylaminocarbonyl)oxymethyl)-2-phenylboronic acid pinacol ester [Prodrug B]”, the “Efficacy of ROS release in cells” value (HL-60 cells) was 0.09 ± 0.02, the “Relative efficiency of cell loading” value (HL60-cells) was 1.8 and the “TLC-retention factor (Rf)” value [1] was 0.46. The IC50 ([2]; listed as prodrug B) was 12 to 26 µM, the IC50 [2] was 12 ± 2 µM and the “Efficacy of ROS generation in vitro” value ([3]; 17 min incubation) was 0.24. The “Efficacy of ROS generation in vitro” value ([3]; 37 min incubation) was 0.53, the “Efficacy of iron release in vitro” value [4] was 0.09 and the IC50 (Fibroplasts) was > 50 µM.
In the case of `N=C1NC(=O)N2CC12` (stereo not drawn) [Imexon (Amplimexon), Imexon], the IC50 (8226 (myeloma); 24 h incubation) is given as 40 µM, the IC50 (8226 (myeloma); [7]) is given as 41 µM and the IC50 (C8161 (melanoma); 24 h incubation) is given as 72 µM. For the same compound, the IC50 (C8161 (melanoma); [7]) was 135 µM, the IC50 (8226-Dox 40 (myeloma); 24 h incubation) was 40 µM and the IC50 (8226-Dox 40 (myeloma); [7]) was 36 µM. For the same compound, the IC50 (MCF-7 (breast); 24 h incubation) was 270 µM, the IC50 (MCF-7 (breast); [7]) was 450 µM and the IC50 (HEY (ovary); 24 h incubation) was 180 µM. The IC50 (HEY (ovary); [7]) was 270 µM, the IC50 (CIN8/27B (myeloma); 24 h incubation) was 270 µM and the IC50 (CIN8/27B (myeloma); [7]) was 90 µM. The IC50 (A375 (melanoma); 24 h incubation) was 54 µM, the IC50 (A375 (melanoma); [7]) was 45 µM and the IC50 (C480 (colon); 24 h incubation) was 270 µM. The IC50 (C480 (colon); [7]) was 135 µM, the IC50 (MIRW5 (melanoma); 24 h incubation) was 315 µM and the IC50 (MIRW5 (melanoma); [7]) was 63 µM. For the same compound, the IC50 (BE (ovary); 24 h incubation) was 450 µM and the IC50 (BE (ovary); [7]) was 270 µM.
For `CC(=O)[O-].CC(=O)[O-].CCc1c(CC)c2cc3nc(cnc4cc(OCCOCCOCCOC)c(OCCOCCOCCOC)cc4ncc4nc(cc1[n-]2)C(CCCO)=C4C)C(C)=C3CCCO.[Gd+3]` [Motexafin gadolinium], the IC50 [6] is listed as ~12 µM.
